ChEMBL document CHEMBL1201862, “PubChem BioAssay data set” (2004)
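Five concentrations, 48 hours, 96-well plates. GI50 is the concentration that inhibits growth by half.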 The source made the active and inactive calls. No stated cut-off is given here; in the data, active = GI50 up to about 1.1 µM and inactive = higher.

Tests used:
Assay in all cases: NCI anticancer screen, dose series, 48 h
[1] = system: 786-0
[2] = system: A498
[3] = system: A549
[4] = system: ACHN
[5] = system: BT-549
[6] = system: CAKI-1
[7] = system: CCRF-CEM
[8] = system: COLO 205
[9] = system: DU-145
[10] = system: EKVX
[11] = system: HCC 2998
[12] = system: HCT-116
[13] = system: HCT-15
[14] = system: HL-60
[15] = system: HOP-62
[16] = system: HOP-92
[17] = system: HT-29
[18] = system: Hs-578T
[19] = system: IGROV-1
[20] = system: K562
[21] = system: KM12
[22] = system: LOX IMVI
[23] = system: M14
[24] = system: MCF7
[25] = system: MDA-MB-231
[26] = system: MDA-MB-435
[27] = system: MDA-N
[28] = system: MOLT-4
[29] = system: Malme-3M
[30] = system: NCI-H226
[31] = system: NCI-H23
[32] = system: NCI-H460
[33] = system: NCI-H522
[34] = system: NCI/ADR-RES
[35] = system: OVCAR-3
[36] = system: OVCAR-4
[37] = system: OVCAR-5
[38] = system: OVCAR-8
[39] = system: PC-3
[40] = system: RPMI-8226
[41] = system: RXF 393
[42] = system: SF-268
[43] = system: SF-295
[44] = system: SF-539
[45] = system: SK-MEL-28
[46] = system: SK-MEL-2
[47] = system: SK-MEL-5
[48] = system: SK-OV-3
[49] = system: SN12C
[50] = system: SNB-19
[51] = system: SNB-75
[52] = system: SR
[53] = system: SW-620
[54] = system: T47D
[55] = system: TK-10
[56] = system: U-251
[57] = system: UACC-257
[58] = system: UACC-62
[59] = system: UO-31

## CCOP(=O)(OCC)C(c1ccc(F)cc1)N(C(=O)NC(F)(F)F)c1cccc(C(F)(F)F)c1 (configuration not stated)
[1]
  GI50: > 10 µM (inactive)
[2]
  GI50: > 100 µM (inactive)
[3]
  GI50: 82.2 µM (inactive)
[4]
  GI50: > 100 µM (inactive)
[5]
  GI50: > 100 µM (inactive)
[6]
  GI50: > 100 µM (inactive)
[7]
  GI50: > 100 µM (inactive)
[8]
  GI50: > 100 µM (inactive)
[9]
  GI50: > 100 µM (inactive)
[10]
  GI50: > 100 µM (inactive)
[11]
  GI50: > 100 µM (inactive)
[12]
  GI50: 84.3 µM (inactive)
[13]
  GI50: > 100 µM
[14]
  GI50: 43.9 µM (inactive)
[15]
  GI50: > 100 µM (inactive)
[16]
  GI50: 33.2 µM (inactive)
[17]
  GI50: 86.9 µM (inactive)
[18]
  GI50: 59.8 µM (inactive)
[19]
  GI50: 65.8 µM (inactive)
[20]
  GI50: 50.2 µM (inactive)
[21]
  GI50: > 100 µM (inactive)
[22]
  GI50: > 100 µM (inactive)
[23]
  GI50: > 100 µM (inactive)
[24]
  GI50: > 100 µM (inactive)
[25]
  GI50: > 100 µM (inactive)
[26]
  GI50: > 100 µM (inactive)
[27]
  GI50: > 100 µM (inactive)
[28]
  GI50: 61.9 µM (inactive)
[29]
  GI50: > 100 µM (inactive)
[30]
  GI50: > 100 µM (inactive)
[31]
  GI50: > 100 µM (inactive)
[32]
  GI50: 91.4 µM (inactive)
[33]
  GI50: 67.8 µM (inactive)
[34]
  GI50: 82.8 µM (inactive)
[35]
  GI50: > 100 µM (inactive)
[36]
  GI50: 96.4 µM (inactive)
[37]
  GI50: > 100 µM (inactive)
[38]
  GI50: > 100 µM (inactive)
[39]
  GI50: > 100 µM (inactive)
[40]
  GI50: 63 µM (inactive)
[41]
  GI50: 52.8 µM (inactive)
[42]
  GI50: > 100 µM (inactive)
[43]
  GI50: > 100 µM (inactive)
[44]
  GI50: > 100 µM (inactive)
[45]
  GI50: > 100 µM (inactive)
[46]
  GI50: > 100 µM (inactive)
[47]
  GI50: > 100 µM (inactive)
[48]
  GI50: > 100 µM (inactive)
[49]
  GI50: > 100 µM (inactive)
[50]
  GI50: 77.3 µM (inactive)
[51]
  GI50: 46.9 µM (inactive)
[52]
  GI50: 75.3 µM (inactive)
[53]
  GI50: > 100 µM (inactive)
[54]
  GI50: 83.9 µM (inactive)
[55]
  GI50: > 100 µM (inactive)
[56]
  GI50: > 100 µM (inactive)
[57]
  GI50: > 100 µM (inactive)
[58]
  GI50: 72.8 µM (inactive)
[59]
  GI50: 94.8 µM (inactive)

## COC(=O)C1=CO[C@@H](OC2OC(CO)C(O)C(O)C2O)[C@H]2[C@@H](C)[C@@H](O)[C@@H](O)[C@@H]12 (some centres not stated)
[1]
  GI50: > 100 µM (inactive)
[2]
  GI50: > 100 µM (inactive)
[3]
  GI50: > 100 µM (inactive)
[4]
  GI50: > 100 µM (inactive)
[5]
  GI50: > 100 µM (inactive)
[6]
  GI50: > 100 µM (inactive)
[8]
  GI50: > 100 µM (inactive)
[9]
  GI50: > 100 µM (inactive)
[10]
  GI50: > 100 µM (inactive)
[11]
  GI50: > 100 µM (inactive)
[12]
  GI50: > 100 µM (inactive)
[13]
  GI50: > 100 µM
[14]
  GI50: > 100 µM (inactive)
[15]
  GI50: > 100 µM (inactive)
[16]
  GI50: > 100 µM (inactive)
[17]
  GI50: > 100 µM (inactive)
[18]
  GI50: > 100 µM (inactive)
[19]
  GI50: > 100 µM (inactive)
[21]
  GI50: > 100 µM (inactive)
[22]
  GI50: > 100 µM (inactive)
[23]
  GI50: > 100 µM (inactive)
[24]
  GI50: > 100 µM (inactive)
[25]
  GI50: > 100 µM (inactive)
[26]
  GI50: > 100 µM (inactive)
[27]
  GI50: > 100 µM (inactive)
[28]
  GI50: > 100 µM (inactive)
[29]
  GI50: > 100 µM (inactive)
[30]
  GI50: > 100 µM (inactive)
[31]
  GI50: > 100 µM (inactive)
[33]
  GI50: > 100 µM (inactive)
[34]
  GI50: > 100 µM (inactive)
[35]
  GI50: > 100 µM (inactive)
[36]
  GI50: > 100 µM (inactive)
[37]
  GI50: > 100 µM (inactive)
[38]
  GI50: > 100 µM (inactive)
[39]
  GI50: > 100 µM (inactive)
[40]
  GI50: > 100 µM (inactive)
[41]
  GI50: > 100 µM (inactive)
[42]
  GI50: > 100 µM (inactive)
[43]
  GI50: > 100 µM (inactive)
[44]
  GI50: > 100 µM (inactive)
[45]
  GI50: > 100 µM (inactive)
[46]
  GI50: > 100 µM (inactive)
[47]
  GI50: > 100 µM (inactive)
[48]
  GI50: > 100 µM (inactive)
[49]
  GI50: > 100 µM (inactive)
[51]
  GI50: > 100 µM (inactive)
[52]
  GI50: 36.6 µM (inactive)
[53]
  GI50: > 100 µM (inactive)
[54]
  GI50: > 100 µM (inactive)
[55]
  GI50: > 100 µM (inactive)
[56]
  GI50: > 100 µM (inactive)
[57]
  GI50: > 100 µM (inactive)
[58]
  GI50: > 100 µM (inactive)
[59]
  GI50: > 100 µM (inactive)

## COc1cc2c(cc1O)C(Cc1ccc(OCc3ccccc3)c(OCc3ccccc3)c1)N(C(=O)NCCc1ccccc1)CC2 (configuration not stated)
[1]
  GI50: > 100 µM (inactive)
[2]
  GI50: 78.5 µM (inactive)
[3]
  GI50: 20.8 µM (inactive)
[4]
  GI50: > 100 µM (inactive)
[5]
  GI50: > 100 µM (inactive)
[6]
  GI50: > 100 µM (inactive)
[7]
  GI50: 15 µM (inactive)
[8]
  GI50: > 100 µM (inactive)
[9]
  GI50: > 100 µM (inactive)
[10]
  GI50: > 100 µM (inactive)
[11]
  GI50: 86.9 µM (inactive)
[12]
  GI50: 45.1 µM (inactive)
[13]
  GI50: > 100 µM
[14]
  GI50: 37.3 µM (inactive)
[15]
  GI50: > 100 µM (inactive)
[16]
  GI50: > 100 µM (inactive)
[17]
  GI50: > 100 µM (inactive)
[18]
  GI50: > 100 µM (inactive)
[19]
  GI50: > 100 µM (inactive)
[20]
  GI50: 74.3 µM (inactive)
[21]
  GI50: > 100 µM (inactive)
[22]
  GI50: > 100 µM (inactive)
[23]
  GI50: > 100 µM (inactive)
[24]
  GI50: 14.8 µM (inactive)
[25]
  GI50: > 100 µM (inactive)
[26]
  GI50: > 100 µM (inactive)
[27]
  GI50: > 100 µM (inactive)
[28]
  GI50: > 100 µM (inactive)
[29]
  GI50: > 100 µM (inactive)
[30]
  GI50: > 100 µM (inactive)
[31]
  GI50: > 100 µM (inactive)
[32]
  GI50: > 100 µM (inactive)
[33]
  GI50: 2.88 µM (inactive)
[34]
  GI50: > 100 µM (inactive)
[35]
  GI50: > 100 µM (inactive)
[36]
  GI50: 78.9 µM (inactive)
[37]
  GI50: > 100 µM (inactive)
[38]
  GI50: > 100 µM (inactive)
[39]
  GI50: 54.7 µM (inactive)
[40]
  GI50: 10.4 µM (inactive)
[41]
  GI50: > 100 µM (inactive)
[42]
  GI50: > 100 µM (inactive)
[43]
  GI50: > 100 µM (inactive)
[44]
  GI50: > 100 µM (inactive)
[46]
  GI50: > 100 µM (inactive)
[47]
  GI50: 33 µM (inactive)
[48]
  GI50: > 100 µM (inactive)
[49]
  GI50: > 100 µM (inactive)
[50]
  GI50: > 100 µM (inactive)
[51]
  GI50: > 100 µM (inactive)
[52]
  GI50: 37.3 µM (inactive)
[53]
  GI50: > 100 µM (inactive)
[54]
  GI50: 16.4 µM (inactive)
[55]
  GI50: > 100 µM (inactive)
[56]
  GI50: > 100 µM (inactive)
[57]
  GI50: > 100 µM (inactive)
[58]
  GI50: > 100 µM (inactive)
[59]
  GI50: 69 µM (inactive)
